# Earlier results as cited in patent EP0496617B1, “Adenosine kinase inhibitors” (priority 1991, dated 1992).
# How the values were obtained:
# [1] = system: Isolated guinea pig hearts; conditions: added to the perfusion medium in the presence of EHNA; cited from earlier work
# rat cardiomyocytes = conditions: inhibition of ADA together with adenosine kinase; cited from earlier work
# dog hearts = conditions: cited from earlier work
# rat brain slices = conditions: cited from earlier work
# isolated rat hearts = conditions: perfused with the compound alone; normoxic, hypoxic, anoxic or ischemic conditions; cited from earlier work
# anesthetized rats = conditions: cited from earlier work
# guinea pig brain slices = conditions: cited from earlier work
# mice = conditions: cited from earlier work
smiles,measurement,setting,value
"NC[C@H]1O[C@@H](n2cnc3c(N)ncnc32)[C@H](O)[C@@H]1O [GP-1-238, 5'-amino-5'-deoxyadenosine]",increase of adenosine release,[1],15 fold
same,increase in adenosine release,rat cardiomyocytes,6 fold
"Nc1ncnc2c1c(I)cn2[C@@H]1O[C@H](CO)[C@@H](O)[C@H]1O [5-iodotubercidin, reference compound]",effects in ischemia and reperfusion,dog hearts,inconsistent effects
same,adenosine uptake,rat brain slices,inhibited
same,perfusate adenosine concentration,isolated rat hearts,no increase in perfusate adenosine concentration
same,blood pressure and heart rate,anesthetized rats,decrease blood pressure and heart rate
same,adenosine uptake,guinea pig brain slices,inhibited
same,body temperature,mice,hypothermia
same,flaccidity and spontaneous locomotor activity,mice,pronounced general flaccidity and much-reduced spontaneous locomotor activity
